Measurements: patent US9981983B2, “Thienopyranones as kinase inhibitors” (SignalRx Pharmaceuticals, Inc., priority 2008, dated 2018)
One block for each compound: values may come before it.

Tests used:
[1] = system: pAKT serine 473 level in PC3 cells; experiment: pAKT status in IGF-1 stimulated PC3 cells (Ser473 pAKT ELISA); type: cell-based; details: Homo sapiens, PC-3; IGF-1 stimulated PC3 cells; read-out: PC3 pAKT IC50
Method: (§1) PC3 cells were obtained from the American Type Culture Collection (ATCC, Manassas, Va., Cat.# CRL-1435). Two million cells from the prostate cancer line PC3 were placed into 6 cm culture dishes and allowed to grow in complete RPMI 1640 media (Invitrogen, Carlsbad, Calif., Cat.#22400-105) with 10% fetal bovine serum (Invitrogen, Carlsbad, Calif., Cat.#10438-026). After this time period the cells were serum starved for 5 hours followed by application of the test compound. Test compound was added as a DMSO (dimethyl sulfoxide) solution such that the final DMSO concentration in the cell media was less than or equal to 0.2% by volume After 30 minutes of exposure the growth factor stimulant, human IGF-1 (PeproTech, Inc., Rocky Hill, N.J., Cat.#100-11), was added to a final concentration of 0.1 μg/ml in each well. After 30 minutes of IGF-1 exposure, cells were removed from the media and cell lysates were prepared using RIPA Lysis buffer (Upstate, Lake Placid, N.Y., Cat.#20-188), keeping on ice. The pAKT serine 473 level was measured in duplicate samples of the cell lysates using commercially available assays such as the Pathscan® Sandwich ELISA kit for Ser473 pAKT (Cell Signaling, Danvers, Mass., Cat.#7160). A SpectraMax Plus spectrophotometric plate reader (Molecular Devices, Sunnydale, Calif.) was used to measure the optical density signal for pAKT at 450 nm (OD450 nm). The pAKT OD450 nm readings were normalized by total protein amount in the cell lysates determined by standard methods.
(§2) Concentrations of test compounds required to inhibit IGF stimulated pAKT levels to 50% of maximum levels in PC3 cells (termed DM50 for decreased maximum 50%) were calculated by inputting the dose responses in the software package GraphPad Prism4 (GraphPad Software, Inc., San Diego, Calif.).
By these methods a number of compounds of the invention were evaluated and the concentration needed to reduce the detectable pAKT to 50% of the maximal uninhibited signal was calculated. These values (in μMolar units) are listed in Table 8 under the column heading PC3 pAKT IC50 (μMolar).

PC3 cells = experiment: PC3 prostate cancer cell proliferation (WST); type: cell-based; details: Homo sapiens, PC-3; 72 hours; read-out: IC50 PC3 Proliferation
Method: (§3) PC3 cells were obtained from the American Type Culture Collection (ATCC, Manassas, Va., Cat.# CRL-1435) Two thousand cells from the prostate cancer line PC3 were placed in 50 μL of complete RPMI 1640 media (Invitrogen, Carlsbad, Calif., Cat.#22400-105) with 10% fetal bovine serum (Invitrogen, Carlsbad, Calif., Cat.#10438-026) into each well of 96 well cell culture plates in a hexaplicate sampling pattern. A 50 μL aliquot of test compound (prepared from stock test compounds in DMSO diluted into media) was added to the appropriate well such that the final concentrations of test compound were 200, 40, 8, 1.6, 0.32, 0.064, 0.0128, 0.00256, and 0 μM and the final DMSO concentration was less than or equal to 0.2%.
(§4) The plates were incubated for 72 hours 37° C. in an atmosphere of 5% CO2. At the end of this time a 10 μL aliquot of WST solution (Roche Applied Science, Mannheim, Germany) was added into each of the wells. Cells were exposed to the WST solution for 4 hours. A SpectraMax Plus spectrophotometric plate reader (Molecular Devices, Sunnydale, Calif.) was then used to measure the optical density at 450 nm (OD450 nm). Sigmoidal curves were drawn for the dose responses and IC50 values were calculated using the software package GraphPad Prism4 (GraphPad Software, Inc., San Diego, Calif.).

MCF7 breast cancer cells = experiment: Mammosphere cancer stem cell inhibition assay; type: cell-based; details: 1 μM
Method: A mammosphere cancer stem cell inhibition assay was set up using literature methods (T. M. Phillips et al. J. Natl. Cancer I. 2006, 98, 1777-1785, “Mammalian target of rapamycin contributes to the acquired apoptotic resistance of human mesothelioma multicellular spheroids”) using a subset of MCF7 breast cancer cells that posses the ability to evade anchorage independent apoptosis. Commercially available MCF7 breast cancer cells were cultured in MEM supplemented with 0.01 mg/mL of bovine insulin and 10% FBS at 37° C. in humidified atmosphere (5% CO2). Floating cells in the 2-day cultures were collected, washed, and resuspended in DMEM-F12 (50:50) supplemented with 0.4% BSA, 5 μg/mL bovine insulin, 20 ng/mL bFGF, and 10 ng/mL EGF. Cells were then passed through a […] sieve to remove any cell clusters and adjusted to a density of 10,000 cells/mL. Approximately 500 cells were plated in quadruplicate in a sterile poly-HEMA-treated 96-well plate. Cells were then treated with either control or test solutions consisting of the kinase inhibitor Lapatinib (1 μM), Cpd 28 (1 or 10 μM), Cpd 55 (1 or 10 μM), The numbers of mammospheres (clusters of cells numbering more than 4 or 5 per cluster) were then counted after 5-7 days.

breast cancer stem cells = details: women with breast tumors with high HER2; decreased from 11%; cited from earlier work
[2] = system: 786-0 renal cell carcinoma xenograft; experiment: 786-0 renal cell carcinoma xenograft mouse model; type: in vivo, nude mice; details: 25 mg/kg, ip, 3×/wk
Method: To determine if Cpd 9 has anti-tumor effects, an in vivo study was conducted in a 786-0 renal cell carcinoma xenograft model, 786-0 cells (2×10^6) were inoculated subcutaneously into nude mice in the flank area and tumor growth was monitored with calipers via external measurements. Tumor volume was calculated using the formula volume=(length×width^2)/2. When the average tumor volume reached 400 mm^3, mice were randomly divided into 2 groups and treated with either DMSO (control) or Cpd 9 (25 mg/kg, ip) three times weekly (M, W, F) for two weeks.
To determine if Cpd 28 has anti-tumor effects, an in vivo study was conducted in a 786-0 renal cell carcinoma xenograft model, 786-0 cells (2×10^6) were inoculated subcutaneously into nude mice in the flank area and tumor growth was monitored with calipers via external measurements. Tumor volume was calculated using the formula volume=(length×width^2)/2. Treatment was started when tumors reached an average volume of 300 mm^3. […] DMSO was used as control since this was the vehicle the compounds were dissolved in. Tumor size was monitored twice weekly and body weight was monitored once weekly. Means and standard deviations were calculated and the Student t test method was used for statistical comparisons.

786-0 cells = experiment: Apoptosis in 786-0 cells (Annexin V / PI flow cytometry); type: cell-based; design: unit not given here; details: overnight
Method: In order to evaluate the mechanism of action of these compounds, 786-0 cell cultures were treated with Cpd 9 or Cpd 28 at different concentrations overnight and then analyzed for apoptotic induction. The cells were stained using standard methods with Annexin V and/or Propedium iodine (PI) at room temperature for 15 minutes. Apoptotic cells at early (Annexin V positive) or late stage (both Annexin V and PI positive) were detected by Flow Cytometry.

pAKT in H1299 cells = experiment: pAKT status DM50, H1299; type: cell-based; details: Homo sapiens, NCI-H1299; H1299, non-small cell lung cancer
Method: as §1, §2
(§5) Several other cancer cell lines were obtained from ATCC and grown according to the supplier's recommendations and treated with test compounds. DM50 values listed in Table 6 below were obtained by the methods described in Example A: […]

pAKT in BT-474 cells = experiment: pAKT status DM50, BT-474; type: cell-based; details: Homo sapiens; BT-474, breast cancer
Method: as §1, §2, §5

pAKT in 786-O cells = experiment: pAKT status DM50, 786-O; type: cell-based; details: Homo sapiens, 786-0, renal cell carcinoma
Method: as §1, §2, §5

H1299 cells = experiment: Cellular proliferation (Example B method), H1299; type: cell-based; details: Homo sapiens, NCI-H1299; H1299, non-small cell lung cancer
Method: as §3, §4
(§6) Several other cancer cell lines were obtained from ATCC and grown according to their recommendations and treated with test compounds to obtain the concentration of test compound that inhibited the cellular proliferation by 50% of no-treatment controls. These IC50 values (μM) are listed in Table 7 below obtained by the methods described in Example B: […]

BT-474 cells = experiment: Cellular proliferation (Example B method), BT-474; type: cell-based; details: Homo sapiens; BT-474, breast cancer
Method: as §3, §4, §6

786-O cells = experiment: Cellular proliferation (Example B method), 786-O; type: cell-based; details: Homo sapiens, 786-0, renal cell carcinoma
Method: as §3, §4, §6

IC50 [1]: 5.29 µM
IC50 (PC3 cells): 15.3 µM
Compound: CS(=O)(=O)c1ccc(-c2csc3c(=O)cc(N4CCOCC4)oc23)cc1 [Compound 13]

IC50 [1]: 6.32 µM
IC50 (PC3 cells): 6.29 µM
Compound: Nc1cccc(-c2csc3c(=O)cc(N4CCOCC4)oc23)c1 [Compound 11]

Compound: CS(=O)(=O)CCNCc1ccc(-c2ccc3ncnc(Nc4ccc(OCc5cccc(F)c5)c(Cl)c4)c3c2)o1 [Lapatinib, reference compound]
inhibition of mammosphere production versus control (MCF7 breast cancer cells; first experiment): 33%
number of mammospheres (MCF7 breast cancer cells; first experiment, control 38±4): 26±2 mammospheres
inhibition of mammosphere production versus control (MCF7 breast cancer cells; separate experiment): 55%
number of mammospheres (MCF7 breast cancer cells; separate experiment, control 32±6): 17±4 mammospheres
breast cancer stem cells in biopsies (breast cancer stem cells): 5 % of cells

IC50 (PC3 cells): 2.01 µM
IC50 (pAKT in H1299 cells): 3.07 µM
IC50 (pAKT in BT-474 cells): 0.906 µM
IC50 (pAKT in 786-O cells): 2.66 µM
IC50 (H1299 cells): 3.04 µM
IC50 (BT-474 cells): 5.91 µM
IC50 (786-O cells): 6.24 µM
Compound: CN(C)c1ccc(-c2csc3c(=O)cc(N4CCOCC4)oc23)cc1 [Compound 9]
tumor growth reduction compared to control ([2]; about two weeks, p<0.05): 93%
body weight change or other abnormalities ([2]; two weeks): No significant body weight change or other abnormalities were observed
Early stage apoptotic cells (786-0 cells; 5 μM): 7.76
Late stage apoptotic cells (786-0 cells; 5 μM): 10.5
Total Apoptotic Cells (786-0 cells; 5 μM): 18.26
Early stage apoptotic cells (786-0 cells; 10 μM): 8.31
Late stage apoptotic cells (786-0 cells; 10 μM): 11.62
Total Apoptotic Cells (786-0 cells; 10 μM): 19.93
